Laboratory results from patent US20260209193A1, “NOVEL INHIBITORS OF DNA DAMAGE RESPONSES FOR CANCER THERAPY” (The Regents of the University of California, priority 2022, published 2026).
One block for each compound: values may come before it.

Molecular target: T1, PARP1 (Homo sapiens, UniProt P09874)
T1 construct: endogenous in cells; host or cells: PC3
Test: PARP1 trapping, chromatin fractionation (chromatin-bound fraction)
Assay type: cell-based
Settings: PC3 cells
Description: The trapped PARP1 forms a toxic lesion and stalls the progress of replication forks. The replication fork collapses in BRCA1/2-deficient cancer cells, and then results in cell death. […] Six cancer cell lines were used in this assay, including two breast cancer cell lines, BRCA1-mutunt SUM149PT-BRCA1mut and SUM149PT-BRCA1rev where deleterious BRCA1 mutation is reverted to form a functional BRCA1, two ovarian cancer cell lines, BRCA1-null UWB1.289 and UWB1.289+BRCA1, a stable cell line in which wild-type BRCA1 function has been restored, and two prostate cancer cell lines, enzalutamide resistant C4-2B/MR which is homologous recombination (HR)-deficient due to Rad51 mutation, and enzalutamide insensitive PC3 which is HR-proficient.

T1 sequence (P09874 whole entry, species assumed): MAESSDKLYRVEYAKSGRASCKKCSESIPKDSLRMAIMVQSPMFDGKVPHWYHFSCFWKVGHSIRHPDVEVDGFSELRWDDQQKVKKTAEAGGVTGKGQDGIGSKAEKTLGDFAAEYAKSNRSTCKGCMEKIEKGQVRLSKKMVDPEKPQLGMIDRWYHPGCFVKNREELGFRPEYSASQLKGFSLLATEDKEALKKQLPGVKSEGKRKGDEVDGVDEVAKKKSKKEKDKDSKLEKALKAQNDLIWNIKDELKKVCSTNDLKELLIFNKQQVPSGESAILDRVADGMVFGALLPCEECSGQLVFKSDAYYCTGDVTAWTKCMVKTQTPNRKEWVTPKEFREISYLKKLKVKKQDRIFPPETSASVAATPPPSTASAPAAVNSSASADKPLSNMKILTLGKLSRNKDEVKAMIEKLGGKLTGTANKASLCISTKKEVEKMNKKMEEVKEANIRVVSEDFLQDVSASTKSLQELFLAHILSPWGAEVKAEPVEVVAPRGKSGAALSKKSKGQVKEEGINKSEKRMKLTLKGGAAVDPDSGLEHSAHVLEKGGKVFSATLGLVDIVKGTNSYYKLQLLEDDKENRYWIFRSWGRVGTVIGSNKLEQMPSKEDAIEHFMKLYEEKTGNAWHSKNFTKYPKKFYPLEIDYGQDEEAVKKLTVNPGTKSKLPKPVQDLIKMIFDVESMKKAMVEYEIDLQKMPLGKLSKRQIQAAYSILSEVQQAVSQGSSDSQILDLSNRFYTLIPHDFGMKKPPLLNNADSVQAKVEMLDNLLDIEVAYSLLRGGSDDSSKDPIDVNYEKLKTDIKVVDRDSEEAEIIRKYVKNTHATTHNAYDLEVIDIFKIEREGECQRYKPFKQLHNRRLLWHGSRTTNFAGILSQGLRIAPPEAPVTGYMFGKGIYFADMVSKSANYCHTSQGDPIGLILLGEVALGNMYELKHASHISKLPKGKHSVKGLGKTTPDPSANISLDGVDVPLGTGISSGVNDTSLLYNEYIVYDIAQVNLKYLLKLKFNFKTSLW

Compound: CCOCCOc1ccc(C(=O)NC2C/C(=C\c3ccc(F)c(F)c3)C(=O)/C(=C/c3ccc(F)c(F)c3)C2)cc1 (stereo not drawn) [JCS010, N-(3,5-Bis((E)-3,4-difluorobenzylidene)-4-oxocyclohexyl)-4-(2-ethoxyethoxy)benzamide]
PARP1 trapped on DNA lesions (0.5 μM and 2 μM): trapped

Compound: CCCN(CCC)CCOc1ccc(C(=O)NC2C/C(=C\c3ccc(F)c(F)c3)C(=O)/C(=C/c3ccc(F)c(F)c3)C2)cc1 (stereo not drawn) [JCS011, N-(3,5-Bis((E)-3,4-difluorobenzylidene)-4-oxocyclohexyl)-4-(2-(dipropylamino)ethoxy)benzamide]
PARP1 trapped on DNA lesions (0.5 μM and 2 μM): trapped | PARP1-trapping potency relative to JC099 (PARP1 in the chromatin-bound fraction): higher potency in PARP1-trapping

Compound: CC(C)N(CCOc1ccc(C(=O)NC2C/C(=C\c3ccc(F)c(F)c3)C(=O)/C(=C/c3ccc(F)c(F)c3)C2)cc1)C(C)C (stereo not drawn) [JCS013, N-(3,5-Bis((E)-3,4-difluorobenzylidene)-4-oxocyclohexyl)-4-(2-(diisopropylamino)ethoxy)benzamide]
PARP1 trapped on DNA lesions (0.5 μM and 2 μM): trapped | PARP1-trapping potency relative to JC099 (PARP1 in the chromatin-bound fraction): higher potency in PARP1-trapping

Compound: O=C1/C(=C/c2ccc(F)c(F)c2)CC(NC(=O)c2ccc(OCCN3CCCCC3)cc2)C/C1=C\c1ccc(F)c(F)c1 (stereo not drawn) [JCS16]
PARP1 trapped on DNA lesions (0.5 μM): trapped

Compound: CCCCCN(CCCCC)CCOc1ccc(C(=O)NC2C/C(=C\c3ccc(F)c(F)c3)C(=O)/C(=C/c3ccc(F)c(F)c3)C2)cc1 (stereo not drawn) [JCS023, N-(3,5-Bis((E)-3,4-difluorobenzylidene)-4-oxocyclohexyl)-4-(2-(dipentylamino)ethoxy)benzamide]
PARP1 trapped on DNA lesions (0.5 μM and 2 μM): trapped | PARP1 trapped on DNA lesions (0.5 μM): trapped

Compound: O=C1/C(=C/c2ccc(F)c(F)c2)CC(NC(=O)c2ccc(NCCN3CCCCC3)cc2)C/C1=C\c1ccc(F)c(F)c1 (stereo not drawn) [JCS028, N-(3,5-Bis((E)-3,4-difluorobenzylidene)-4-oxocyclohexyl)-4-((2-(piperidin-1-yl)ethyl)amino)-benzamide]
PARP1 trapped on DNA lesions (0.5 μM and 2 μM): trapped | PARP1 trapped on DNA lesions (0.5 μM): trapped

Compound: COCCCNCCOc1ccc(C(=O)NC2C/C(=C\c3ccc(F)c(F)c3)C(=O)/C(=C/c3ccc(F)c(F)c3)C2)cc1 (stereo not drawn) [JCS030, N-(3,5-Bis((E)-3,4-difluorobenzylidene)-4-oxocyclohexyl)-4-(2-((3-methoxypropyl)amino)ethoxy)-benzamide]
PARP1 trapped on DNA lesions (0.5 μM): trapped

Compound: COCCNCCOc1ccc(C(=O)NC2C/C(=C\c3ccc(F)c(F)c3)C(=O)/C(=C/c3ccc(F)c(F)c3)C2)cc1 (stereo not drawn) [JCS031, N-(3,5-Bis((E)-3,4-difluorobenzylidene)-4-oxocyclohexyl)-4-(2-((2-methoxyethyl)amino)ethoxy)-benzamide]
PARP1 trapped on DNA lesions (0.5 μM): trapped

Compound: CCCCNCCOc1ccc(C(=O)NC2C/C(=C\c3ccc(F)c(F)c3)C(=O)/C(=C/c3ccc(F)c(F)c3)C2)cc1 (stereo not drawn) [JCS034, N-(3,5-Bis((E)-3,4-difluorobenzylidene)-4-oxocyclohexyl)-4-(2-(butylamino)ethoxy)benzamide]
PARP1 trapped on DNA lesions (0.5 μM): trapped | PARP1-trapping potency relative to JC099 (PARP1 in the chromatin-bound fraction): higher potency in PARP1-trapping

Compound: NCCOc1ccc(C(=O)NC2C/C(=C\c3ccc(F)c(F)c3)C(=O)/C(=C/c3ccc(F)c(F)c3)C2)cc1 (stereo not drawn) [JCS036]
PARP1 trapped on DNA lesions (0.5 μM): trapped

Compound: C=CCN(CC=C)CCOc1ccc(C(=O)NC2C/C(=C\c3ccc(F)c(F)c3)C(=O)/C(=C/c3ccc(F)c(F)c3)C2)cc1 (stereo not drawn) [JCS037, N-(3,5-Bis((E)-3,4-difluorobenzylidene)-4-oxocyclohexyl)-4-(2-(diallylamino)ethoxy)benzamide]
PARP1 trapped on DNA lesions (0.5 μM): trapped

Compound: CN1CCN(CCOc2ccc(C(=O)NC3C/C(=C\c4ccc(F)c(F)c4)C(=O)/C(=C/c4ccc(F)c(F)c4)C3)cc2)CC1 (stereo not drawn) [JCS038, N-(3,5-Bis((E)-3,4-difluorobenzylidene)-4-oxocyclohexyl)-4-(2-(4-methylpiperazin-1-yl)ethoxy)benz-amide]
PARP1 trapped on DNA lesions (0.3 μM): trapped

Compound: CCN(CC)CCOc1ccc(C(=O)NC2CC(Cc3ccc(F)c(F)c3)C(=O)C(Cc3ccc(F)c(F)c3)C2)cc1 (stereo not drawn) [JCS074, N-(3,5-bis(3,4-difluorobenzyl)-4-oxocyclohexyl)-4-(2-(diethylamino)ethoxy)benzamide]
PARP1-trapping potency relative to JC099 (PARP1 in the chromatin-bound fraction): increased the accumulation of PARP1 in the chromatin-bound fraction than JC099

Compound: O=C1/C(=C/c2ccc(F)c(F)c2)CC(NC(=O)c2ccc(OCCN3CCC(C(F)(F)F)CC3)cc2)C/C1=C\c1ccc(F)c(F)c1 (stereo not drawn) [JCS077, N-(3,5-bis((E)-3,4-difluorobenzylidene)-4-oxocyclohexyl)-4-(2-(4-(trifluoromethyl)piperidin-1-yl)ethoxy)benzamide]
PARP1-trapping potency relative to JC099 (PARP1 in the chromatin-bound fraction): increased the accumulation of PARP1 in the chromatin-bound fraction than JC099

Compound: CCc1ccc2c(c1)CCC1(CCN(CCOc3ccc(C(=O)NC4C/C(=C\c5ccc(F)c(F)c5)C(=O)/C(=C/c5ccc(F)c(F)c5)C4)cc3)CC1)O2 (stereo not drawn) [JCS078, N-(3,5-bis((E)-3,4-difluorobenzylidene)-4-oxocyclohexyl)-4-(2-(6-ethylspiro[chromane-2,4′-piperidin]-1′-yl)ethoxy)benzamide]
PARP1-trapping potency relative to JC099 (PARP1 in the chromatin-bound fraction): increased the accumulation of PARP1 in the chromatin-bound fraction than JC099

More lines, now with the values ahead:

PARP1-trapping potency relative to JC099 (PARP1 in the chromatin-bound fraction): their potencies were less than JC099
Compound: 3-amino-N-(3,5-bis((E)-3,4-difluorobenzylidene)-4-oxocyclohexyl)-5-(4-(isopropylsulfonyl)phenyl)pyrazine-2-carboxamide [JCS089]

PARP1 trapped on DNA lesions (0.3 μM): trapped
Compound: O=C1/C(=C/c2ccc(F)c(F)c2)CC(NC(=O)c2ccc(NCCN3CCOCC3)cc2)C/C1=C\c1ccc(F)c(F)c1 (stereo not drawn) [JCS042, N-(3,5-Bis((E)-3,4-difluorobenzylidene)-4-oxocyclohexyl)-4-((2-morpholinoethyl)amino)benzamide]

PARP1 trapped on DNA lesions (0.3 μM): trapped
Compound: O=C1/C(=C/c2ccc(F)c(F)c2)CC(NC(=O)c2ccc(NCCCN3CCCC3)cc2)C/C1=C\c1ccc(F)c(F)c1 (stereo not drawn) [JCS044, N-(3,5-Bis((E)-3,4-difluorobenzylidene)-4-oxocyclohexyl)-4-((3-(pyrrolidin-1-yl)propyl)amino)benz-amide]

PARP1 trapped on DNA lesions (0.3 μM): trapped
Compound: O=C(CN1CCOCC1)Nc1ccc(C(=O)NC2C/C(=C\c3ccc(F)c(F)c3)C(=O)/C(=C/c3ccc(F)c(F)c3)C2)cc1 (stereo not drawn) [JCS047, N-(3,5-bis((E)-3,4-difluorobenzylidene)-4-oxocyclohexyl)-4-(2-morpholinoacetamido)benzamide]

PARP1 trapped on DNA lesions (0.3 μM): trapped | PARP1-trapping potency relative to JC099 (PARP1 in the chromatin-bound fraction): higher potency in PARP1-trapping
Compound: O=C(CN1CCCC1=O)Nc1ccc(C(=O)NC2C/C(=C\c3ccc(F)c(F)c3)C(=O)/C(=C/c3ccc(F)c(F)c3)C2)cc1 (stereo not drawn) [JCS048, N-(3,5-bis((E)-3,4-difluorobenzylidene)-4-oxocyclohexyl)-4-(2-(2-oxopyrrolidin-1-yl)acetamido)benzamide]

PARP1 trapped on DNA lesions (0.3 μM): trapped | PARP1-trapping potency relative to JC099 (PARP1 in the chromatin-bound fraction): higher potency in PARP1-trapping
Compound: O=C1/C(=C/c2ccc(F)c(F)c2)CC(NC(=O)c2ccc(NC(=O)N3CCCCC3)cc2)C/C1=C\c1ccc(F)c(F)c1 (stereo not drawn) [JCS053, N-(4-((3,5-bis((E)-3,4-difluorobenzylidene)-4-oxocyclohexyl)carbamoyl)phenyl)piperidine-1-carboxamide]

PARP1 trapped on DNA lesions (0.3 μM): trapped | PARP1-trapping potency relative to JC099 (PARP1 in the chromatin-bound fraction): higher potency in PARP1-trapping
Compound: O=C1/C(=C/c2ccc(F)c(F)c2)CC(NC(=O)c2ccc(NC(=O)N3CCCC3)cc2)C/C1=C\c1ccc(F)c(F)c1 (stereo not drawn) [JCS054, N-(4-((3,5-bis((E)-3,4-difluorobenzylidene)-4-oxocyclohexyl)carbamoyl)phenyl)pyrrolidine-1-carboxamide]

PARP1 trapped on DNA lesions (0.3 μM): trapped
Compound: O=C1/C(=C/c2ccc(F)c(F)c2)CC(NC(=O)c2ccc(NC(=O)N3CCN(C(=O)C4CC4)CC3)cc2)C/C1=C\c1ccc(F)c(F)c1 (stereo not drawn) [JCS057, N-(4-((3,5-bis((E)-3,4-difluorobenzylidene)-4-oxocyclohexyl)carbamoyl)phenyl)-4-(cyclopropanecarbonyl)piperazine-1-carboxamide]

PARP1-trapping potency relative to JC099 (PARP1 in the chromatin-bound fraction): higher potency in PARP1-trapping
Compound: CCCN(CCC)CCNc1ccc(C(=O)NC2C/C(=C\c3ccc(F)c(F)c3)C(=O)/C(=C/c3ccc(F)c(F)c3)C2)cc1 (stereo not drawn) [JCS065, N-(3,5-Bis((E)-3,4-difluorobenzylidene)-4-oxocyclohexyl)-4-((2-(dipropylamino)ethyl)amino)benz-amide]

PARP1-trapping potency relative to JC099 (PARP1 in the chromatin-bound fraction): higher potency in PARP1-trapping
Compound: CCN(CC)CCNc1ccc(C(=O)NC2C/C(=C\c3ccc(F)c(F)c3)C(=O)/C(=C/c3ccc(F)c(F)c3)C2)cc1 (stereo not drawn) [JCS070, N-(3,5-Bis((E)-3,4-difluorobenzylidene)-4-oxocyclohexyl)-4-((2-(diethylamino)ethyl)amino)benz-amide]

PARP1-trapping potency relative to JC099 (PARP1 in the chromatin-bound fraction): higher potency in PARP1-trapping
Compound: Cc1nn(C)c2ncc(C(=O)NC3C/C(=C\c4ccc(F)c(F)c4)C(=O)/C(=C/c4ccc(F)c(F)c4)C3)c(Cl)c12 (stereo not drawn) [JCS085]

PARP1-trapping potency relative to JC099 (PARP1 in the chromatin-bound fraction): higher potency in PARP1-trapping
Compound: O=C1/C(=C/c2ccc(F)c(F)c2)CC(NC(=O)c2ccc(NCCN3CCN(Cc4ccccc4)CC3)cc2)C/C1=C\c1ccc(F)c(F)c1 (stereo not drawn) [JCS087, 4-((2-(4-benzylpiperazin-1-yl)ethyl)amino)-N-(3,5-bis((E)-3,4-difluorobenzylidene)-4-oxocyclohexyl)benzamide]

PARP1-trapping potency relative to JC099 (PARP1 in the chromatin-bound fraction): higher potency in PARP1-trapping
Compound: CCN(CC)CCOc1cccc(C(=O)NC2C/C(=C\c3ccc(F)c(F)c3)C(=O)/C(=C/c3ccc(F)c(F)c3)C2)c1 (stereo not drawn) [JCS099, N-(3,5-Bis((E)-3,4-difluorobenzylidene)-4-oxocyclohexyl)-3-(2-(diethylamino)ethoxy)benzamide]
